Columns and labels:
[1] = system: anemic DD-CKD patients with prevalent dialysis and established ESA treatment; experiment: Phase 3 Prevalent DD-CKD (Conversion) trial, vadadustat vs darbepoetin alfa; assay type: in vivo, human; conditions: for Ferritin, mean / Hepcidin, mean / TSAT, mean: Prevalent trial
Protocol: Two randomized Phase 3, open-label, sponsor-blind, active-controlled non-inferiority (NI) trials were conducted in anemic DD-CKD patients with incident dialysis and limited ESA exposure (Correction/Conversion trial) and with prevalent dialysis and established ESA treatment (Conversion trial). The primary safety endpoint was prespecified as the time to first major adverse cardiovascular event (MACE) (all-cause mortality, non-fatal MI, or non-fatal stroke) pooled across the two trials. Primary and key secondary efficacy endpoints were mean change in Hb from baseline [BL] to wks 24-36 and to wks 40-52 between two treatment arms, respectively.
Phase 3, randomized, open-label, active-controlled study of vadadustat vs darbepoetin alfa for the maintenance treatment of anemia after conversion from ESA therapy.
Following a Screening period of up to 8 weeks (56 days), subjects who met all inclusion and none of the exclusion criteria were randomized 1:1 to vadadustat or darbepoetin alfa.
Randomization were stratified by: • Geographic region (United States [US] versus European Union [EU] versus Rest of World [ROW]) • New York Heart Association congestive heart failure (CHF) Class 0 (no CHF) or I versus II or III. • Study entry Hb (<10.0 versus ≥10.0 g/dL).
Following randomization, there were 3 periods during the study: • Conversion and Maintenance Period (Weeks 0 to 52): conversion to study medication for maintaining Hb (Weeks 0-23), primary efficacy evaluation (Weeks 24-36), and secondary efficacy evaluation (Weeks 40-52). • Long-term Treatment Period (Weeks 53 to End of Treatment [EOT]): continued study medication to assess long-term safety. • Follow-up (EOT+4 weeks): post-treatment visit (either in person or via telephone) for safety.
Inclusion Criteria: • ≥18 years of age. • Receiving chronic maintenance dialysis (either peritoneal or hemodialysis) for end-stage kidney disease for at least 12 weeks prior to Screening. • Currently maintained on ESA therapy, with a dose received within 6 weeks prior to or during Screening. • Mean screening Hb between 8.0 and 11.0 g/dL (inclusive) in the US and between 9.0 and 12.0 g/dL (inclusive) outside of the US, as determined by the average of 2 Hb values measured by the central laboratory during Screening. • Serum ferritin ≥100 ng/mL and transferrin saturation (TSAT) 20% during Screening. • Folate and vitamin B12 measurements lower limit of normal during Screening. • Understands the procedures and requirements of the study and provides written informed consent and authorization for protected health information disclosure.
Exclusion Criteria: • Anemia due to a cause other than CKD or subjects with active bleeding or recent blood loss. • History of sickle cell disease, myelodysplastic syndromes, bone marrow fibrosis, hematologic malignancy, myeloma, hemolytic anemia, thalassemia, or pure red cell aplasia. • Red blood cell (RBC) transfusion within 8 weeks prior to randomization. • Anticipated to recover adequate kidney function to no longer require dialysis. • Aspartate aminotransferase (AST)/serum glutamic oxaloacetic transaminase (SGOT), alanine aminotransferase (ALT)/serum glutamic pyruvic transaminase (SGPT), or total bilirubin >2.0×upper limit of normal (ULN) during Screening. […]

[2] = system: subjects receiving hemodialysis, previously maintained on epoetin alfa; experiment: Open-label Phase 2 trial in subjects receiving hemodialysis previously maintained on epoetin alfa
Protocol: The primary endpoint was mean hemoglobin (Hb) change from pre-baseline average to midtrial (Weeks 7-8) and end-of trial (Weeks 15-16) and was analyzed using available data (no imputation).

## O=C(O)CNC(=O)c1ncc(-c2cccc(Cl)c2)cc1O [Compound 1, Vadadustat]
[1]; Baseline
  Ferritin, mean: 846.78 ng/mL
  Hepcidin, mean: 193.86 ng/mL
  TSAT, mean: 38.06%
[1]; Weeks 24-36
  Ferritin, mean: 801.93 ng/mL
  Hepcidin, mean: 146.95 ng/mL
  TSAT, mean: 34.77%
[1]; Weeks 40-52
  Ferritin, mean: 787.27 ng/mL
  Hepcidin, mean: 137.41 ng/mL
  TSAT, mean: 34.11%
[1]; weeks 24-36
  proportion of patients requiring RBC transfusions: 2.0%
  proportion of patients with an average hemoglobin value within the geography-specific target range: 49.2%
[1]; weeks 24 to 36
  mean (SEM) change from baseline in hemoglobin: 0.19 (0.032) g/dL
  mean difference between groups (vadadustat vs darbepoetin alfa) in change from baseline in hemoglobin: −0.17 (0.033) g/dL
[1]; weeks 40-52
  proportion of patients requiring RBC transfusions: 3.7%
  proportion of patients with an average hemoglobin value within the geography-specific target range: 44.3%
[1]; weeks 40 to 52
  mean change from baseline in hemoglobin: 0.23 (0.035) g/dL
  mean difference between groups (vadadustat vs darbepoetin alfa) in change from baseline in hemoglobin: −0.18 (0.035) g/dL
[2]; all cohorts
  subjects with an Hb excursion>13 g/dL: one
[2]; all dose cohorts (300 mg QD, 450 mg QD, 450 mg TIW), Weeks 7-8 and 15-16
  mean change in Hb from pre-baseline average: no statistically significant mean change
[2]; human, in vivo
  serious AEs attributed to study drug: No serious AEs
[2]; overall
  diarrhea: 10.6%
  nausea: 11.7%
  subjects who experienced an adverse event (AE): 83%
  vomiting: 9.6%

Source: patent US20230285374A1, “THERAPEUTIC METHODS USING VADADUSTAT” (Akebia Therapeutics, Inc., priority 2019, published 2023)
